Results as given in patent US20040006061A1, “Alkoxybenzylamine” (priority 2001, published 2004).
Like-named read-outs stand apart in the source and are kept apart here.

Tests used:
[1] = system: Staphylococcus hominis DSM 20328; assay: Determination of the Minimum Inhibitory Concentration (MIC value) in microtitre plates, Staphylococcus hominis; assay type: cell-based; settings: Staphylococcus hominis, DSM20328, 48 h, read-out: MIC [μg/ml] SH
Procedure: (§1) Determination of the Minimum Inhibitory Concentration (MIC Value) in Microtitre Plates
Casein-soybean flour-peptone broth for preparation of pre-cultures of test bacteria and yeast.
Staphylococcus hominis DSM 20328 […]
(§2) The test substances are pre-dissolved in dimethyl sulfoxide (DMSO) and tested in a dilution series of 1:2.
(§3) The bacteria are cultured overnight in CASO broth and washed off using 10 ml of 0.85% sodium chloride solution (+0.1% Triton X-100).
(§4) All the test organisms are adjusted to an organism count of 1-5×10^6 CFU/ml using 0.85% sodium chloride solution.
(§5) The test substances are pre-pipetted into microtitre plates in amounts of 8 μl per well.
(§6) Pre-diluted test organism suspensions are diluted 1:100 in CASO broth.
(§7) The test batches are incubated for 48 hours at 37° C.
(§8) After incubation, the growth is determined on the basis of the turbidity of the test batches (optical density) at 620 nm in a microplate reader.
(§9) The minimum inhibitory concentration (MIC value) is the concentration of substance at which there is found (compared to the growth of the control) an appreciable inhibition of growth (≦20% growth) of the test organisms.
(§10) One microtitre plate is used for each test organism and substance concentration.
(§11) All the substances are tested in duplicate.

[2] = system: Escherichia coli NCTC 8196; assay: Determination of the Minimum Inhibitory Concentration (MIC value) in microtitre plates, Escherichia coli; assay type: cell-based; settings: for MIC: Escherichia coli, NCTC8196, 48 h, read-out: MIC [μg/ml] EC
Procedure: as §1
Casein-soybean flour-peptone broth for preparation of pre-cultures of test bacteria and yeast. […]
Escherichia coli NCTC 8196
as §2, §3, §4, §5, §6, §7, §8, §9, §10, §11

[3] = Staphylococcus hominis DSM 20328, CASO broth, 48 hours at 37° C., MIC = ≦20% growth (optical density at 620 nm)
[4] = Escherichia coli NCTC 8196, CASO broth, 48 hours at 37° C., MIC = ≦20% growth (optical density at 620 nm)

SMILES: CCCCCCOc1ccc(CN(C)CCCCCC)cc1OC [Compound of formula (32)]
- MIC [1, 3]: 60 µg/mL
- MIC [2, 4]: 7.5 µg/mL

SMILES: CCCOc1ccc(CN2CCCCC2)cc1OC [Compound of formula (70)]
- MIC [1, 3]: > 120 µg/mL
- MIC [2, 4]: > 120 µg/mL

SMILES: CCCCCCCCOc1ccc(CN2CCOCC2)cc1OC [Compound of formula (40)]
- MIC [1, 3]: > 120 µg/mL
- MIC [2, 4]: > 120 µg/mL

SMILES: CCCCCCCCOc1ccc(CN(C)CCCC)cc1OC [Compound of formula (41)]
- MIC [1, 3]: 15 µg/mL
- MIC [2, 4]: 15 µg/mL

SMILES: CCCCCCOc1ccc(CN(CC)CC)cc1OCCCCCC [Compound of formula (93)]
- MIC [1, 3]: 7.5 µg/mL
- MIC [2, 4]: 120 µg/mL

SMILES: CCCOc1ccc(CN2CCCC2)cc1OC [Compound of formula (66)]
- MIC [1, 3]: > 120 µg/mL
- MIC [2, 4]: > 120 µg/mL

SMILES: CCCCCCOc1ccc(CN(C)CCc2ccccn2)cc1OC [Compound of formula (23)]
- MIC [1, 3]: 60 µg/mL
- MIC [2, 4]: > 120 µg/mL

SMILES: CCCCCCCCCCCCOc1ccc(CN(C)CCCC)cc1 [Compound of formula (73)]
- MIC [1, 3]: 120 µg/mL
- MIC [2, 4]: > 120 µg/mL

SMILES: CCCCCCOc1ccc(CN(C)Cc2ccccc2)cc1OCCCCCC [Compound of formula (95)]
- MIC [1, 3]: > 120 µg/mL
- MIC [2, 4]: > 120 µg/mL

SMILES: CCCCCCCCCCCCOc1ccc(CN2CCCC2)cc1OC [Compound of formula (18)]
- MIC [1, 3]: 3.75 µg/mL
- MIC [2, 4]: 15 µg/mL

SMILES: CCCCCCCCCCCCOc1ccc(CN(C)CCCCCC)cc1OC [Compound of formula (16)]
- MIC [1, 3]: 120 µg/mL
- MIC [2, 4]: > 120 µg/mL

SMILES: CCCCCCCCCCCCOc1ccc(CN2CCOCC2)cc1 [Compound of formula (72)]
- MIC [1, 3]: > 120 µg/mL
- MIC [2, 4]: > 120 µg/mL

SMILES: CCCOc1ccc(CN(C)CCc2ccccn2)cc1OC [Compound of formula (55)]
- MIC [1, 3]: > 120 µg/mL
- MIC [2, 4]: > 120 µg/mL

SMILES: CCCOc1ccc(CN2CCCCCC2)cc1OC [Compound of formula (58)]
- MIC [1, 3]: 120 µg/mL
- MIC [2, 4]: > 120 µg/mL

SMILES: CCCCCCCCCCCCOc1ccc(CN2CCCC2)cc1OC [Compound of formula (4)]
- MIC [μg/ml] EC [2, 4]: 30 µg/mL

SMILES: CCCOc1ccc(CN2CCN(CC)CC2)cc1OC [Compound of formula (65)]
- MIC [1]: > 120 µg/mL
- MIC [2]: > 120 µg/mL

SMILES: CCCCN(C)Cc1ccc(OCCC)c(OC)c1 [Compound of formula (57)]
- MIC [1, 3]: > 120 µg/mL
- MIC [2, 4]: 120 µg/mL

SMILES: CCCCCCOc1ccc(CN(CC)CC)cc1OC [Compound of formula (29)]
- MIC [1, 3]: > 120 µg/mL
- MIC [2, 4]: > 120 µg/mL

SMILES: CCCOc1ccc(CN(C)Cc2ccccc2)cc1OC [Compound of formula (63)]
- MIC [1, 3]: > 120 µg/mL
- MIC [2, 4]: > 120 µg/mL

SMILES: CCCCCCCCOc1ccc(CN2CCCC2)cc1OC [Compound of formula (50)]
- MIC [1, 3]: 60 µg/mL
- MIC [2, 4]: 60 µg/mL

SMILES: CCCCCCOc1ccc(CN2CCOCC2)cc1OC [Compound of formula (24)]
- MIC [1, 3]: > 120 µg/mL
- MIC [2, 4]: > 120 µg/mL

SMILES: CCCCCCCCOc1ccc(CN2CCN(C)CC2)cc1OC [Compound of formula (44)]
- MIC [1, 3]: 120 µg/mL
- MIC [2, 4]: 120 µg/mL

SMILES: CCCCCCOc1ccc(CN2CCCC2)cc1OC [Compound of formula (6)]
- MIC [1, 3]: > 120 µg/mL
- MIC [2, 4]: > 120 µg/mL

SMILES: CCCCCCCCCCCCOc1ccc(CN(C)CC)cc1 [Compound of formula (77)]
- MIC [1, 3]: 15 µg/mL
- MIC [2, 4]: > 120 µg/mL

SMILES: CCCCCCOc1ccc(CN2CCOCC2)cc1OCCCCCC [Compound of formula (88)]
- MIC [1, 3]: > 120 µg/mL
- MIC [2, 4]: > 120 µg/mL

SMILES: CCCCCCCCCCCCN(C)Cc1ccc(OCCCCCC)c(OCCCCCC)c1 [Compound of formula (99)]
- MIC [1, 3]: > 120 µg/mL
- MIC [2, 4]: > 120 µg/mL

SMILES: CCCCCCCCOc1ccc(CN(C)Cc2ccccc2)cc1OC [Compound of formula (47)]
- MIC [1, 3]: > 120 µg/mL
- MIC [2, 4]: > 120 µg/mL

SMILES: CCCCCCOc1ccc(CN(C)CCCC)cc1OCCCCCC [Compound of formula (89)]
- MIC [1, 3]: 60 µg/mL
- MIC [2, 4]: > 120 µg/mL

SMILES: CCCCCCCCOc1ccc(CN(C(C)C)C(C)C)cc1OC [Compound of formula (43)]
- MIC [1, 3]: > 120 µg/mL
- MIC [2, 4]: > 120 µg/mL

SMILES: CCCCCCCCCCCCOc1ccc(CN(C)CCCCCC)cc1 [Compound of formula (80)]
- MIC [1, 3]: 60 µg/mL
- MIC [2, 4]: > 120 µg/mL
